Assay results from PubChem BioAssay (NCI).
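How tested: cells in 96-well plates exposed to compound for 48 hours at five concentrations. Here, GI50 denotes the concentration required for 50% inhibition of growth. Definition used: TGI = concentration required for complete inhibition of growth.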

Columns and labels:
Assay in all cases: inhibition of tumour cell growth, NCI panel, 48 h
[1] = tested on: CCRF-CEM leukemia
[2] = tested on: HCT-116 colon
[3] = tested on: MALME-3M melanoma
[4] = tested on: OVCAR-4 ovarian
[5] = tested on: RXF 393 renal
[6] = tested on: SF-539 CNS
[7] = tested on: SR leukemia
[8] = tested on: UACC-257 melanoma
[9] = tested on: UACC-62 melanoma
[10] = tested on: UO-31 renal

Compound `COCCOC(=O)CCn1cc(F)c(=O)[nH]c1=O` has a GI50 [1] of 16 µg/mL, a TGI [1] greater than 150 µg/mL and a GI50 [2] of 4.54 µg/mL. The TGI [2] was greater than 150 µg/mL, the GI50 [3] was greater than 150 µg/mL and the TGI [3] was greater than 150 µg/mL. For the same compound, the GI50 [4] was 20.4 µg/mL, the TGI [4] was greater than 150 µg/mL and the GI50 [5] was 13.8 µg/mL. It also gave a TGI [5] greater than 150 µg/mL, a GI50 [6] of 7.42 µg/mL and a TGI [6] greater than 150 µg/mL. For the same compound, the GI50 [7] was 2.97 µg/mL, the TGI [7] was greater than 150 µg/mL and the GI50 [8] was 26.5 µg/mL. For the same compound, the TGI [8] was greater than 150 µg/mL, the GI50 [9] was 11 µg/mL and the TGI [9] was greater than 150 µg/mL. It also gave a GI50 [10] of 1.82 µg/mL and a TGI [10] greater than 150 µg/mL.
`CCOc1ccc(N2C(N)=NC(N)=NC2(C)C)cc1` showed a GI50 [1] greater than 100 µM, a TGI [1] greater than 100 µM and a GI50 [2] of 34.6 µM. The TGI [2] was greater than 100 µM, the GI50 [3] was 56.4 µM and the TGI [3] was greater than 100 µM. The GI50 [4] was greater than 100 µM, the TGI [4] was greater than 100 µM and the GI50 [5] was greater than 100 µM. The TGI [5] was greater than 100 µM, the GI50 [6] was 28.6 µM and the TGI [6] was greater than 100 µM. The GI50 [7] was 74.6 µM, the TGI [7] was greater than 100 µM and the GI50 [8] was greater than 100 µM. For the same compound, the TGI [8] was greater than 100 µM, the GI50 [9] was 43.8 µM and the TGI [9] was greater than 100 µM. It also gave a GI50 [10] greater than 100 µM and a TGI [10] greater than 100 µM.
Work on `COc1cc(C=NCC(=O)CSC(c2ccccc2)c2ccccc2)cc(OC)c1OC` yielded a GI50 [1] of 5.41 µM, a TGI [1] greater than 100 µM and a GI50 [2] of 14.1 µM. It also gave a TGI [2] greater than 100 µM, a GI50 [3] of 16.8 µM and a TGI [3] of 61.7 µM. It also gave a GI50 [4] of 5.18 µM, a TGI [4] of 64.4 µM and a GI50 [5] of 23.7 µM. The TGI [5] was 96.4 µM, the GI50 [6] was 33.1 µM and the TGI [6] was greater than 100 µM. It also gave a GI50 [7] of 14 µM, a TGI [7] greater than 100 µM and a GI50 [8] of 13.9 µM. It also gave a TGI [8] of 60.5 µM, a GI50 [9] of 19.2 µM and a TGI [9] greater than 100 µM. It also gave a GI50 [10] of 22.6 µM and a TGI [10] greater than 100 µM.
For `NC(=NC1C2CC3CC(C2)CC1C3)Nc1ccc(I)cc1` (centres undefined), the GI50 [1] was 3.43 µM, the TGI [1] was greater than 100 µM and the GI50 [2] was 3.11 µM. For the same compound, the TGI [2] was 10.4 µM, the GI50 [3] was 2.09 µM and the TGI [3] was 5.36 µM. For the same compound, the GI50 [4] was 3.26 µM, the TGI [4] was 14 µM and the GI50 [5] was 3.1 µM. For the same compound, the TGI [5] was 13.5 µM, the GI50 [6] was 4.16 µM and the TGI [6] was 15.5 µM. It also gave a GI50 [7] of 2.49 µM, a TGI [7] of 6.84 µM and a GI50 [8] of 2.16 µM. For the same compound, the TGI [8] was 5.21 µM, the GI50 [9] was 2.88 µM and the TGI [9] was 9.33 µM. The GI50 [10] was 2.67 µM and the TGI [10] was 12.8 µM.
Compound `O=c1c2c(=NCCCN3CCCC3)cc3c(=O)n(CCCN4CCCC4)c(=O)c4c(NCCCN5CCCC5)cc(c(O)n1CCCN1CCCC1)c2c4-3` has a GI50 [1] of 5.22 µM, a TGI [1] of 71 µM and a GI50 [2] of 2.01 µM. The TGI [2] was 6.43 µM, the GI50 [3] was 2.73 µM and the TGI [3] was 7.98 µM. For the same compound, the GI50 [4] was 2.73 µM, the GI50 [5] was 2.83 µM and the TGI [5] was 8.23 µM. It also gave a GI50 [6] of 2.42 µM, a TGI [6] of 8.98 µM and a GI50 [7] of 6.88 µM. The TGI [7] was 81.9 µM, the GI50 [8] was 2.98 µM and the TGI [8] was 8.77 µM. It also gave a GI50 [9] of 2.34 µM, a TGI [9] of 5.12 µM and a GI50 [10] of 4.5 µM. It also gave a TGI [10] of 22 µM.
`CCOC(=O)c1cc2cc([N+](=O)[O-])ccc2oc1=O` gave a TGI [1] greater than 100 µM, a TGI [2] greater than 100 µM and a TGI [3] greater than 100 µM. For the same compound, the TGI [4] was greater than 100 µM, the TGI [5] was greater than 100 µM and the TGI [6] was greater than 100 µM. For the same compound, the TGI [7] was greater than 100 µM, the TGI [8] was greater than 100 µM and the TGI [9] was greater than 100 µM. The TGI [10] was greater than 100 µM.
Work on `CC(Cl)CC(=O)Nc1ccc2c(c1)oc(=O)c1cc(NC(=O)CC(C)Cl)ccc12` (centres undefined) yielded a GI50 [1] of 11.1 µM, a TGI [1] of 29 µM and a GI50 [2] of 12.4 µM. The TGI [2] was 40 µM, the GI50 [3] was 4.28 µM and the TGI [3] was 21.3 µM. The GI50 [4] was 11.3 µM, the TGI [4] was 29.4 µM and the GI50 [5] was 0.762 µM. It also gave a TGI [5] of 22 µM, a GI50 [6] of 14.4 µM and a TGI [6] of 33.1 µM. It also gave a GI50 [7] of 3.42 µM, a TGI [7] of 20.7 µM and a GI50 [8] of 23.2 µM. The TGI [8] was 76.2 µM, the GI50 [9] was 15.1 µM and the TGI [9] was 49.9 µM. The GI50 [10] was 13.3 µM and the TGI [10] was 69.4 µM.
For `COc1cc([N+](=O)[O-])c2ncccc2c1O`, the GI50 [1] was 95.2 µM, the TGI [1] was greater than 100 µM and the GI50 [2] was 4.26 µM. It also gave a TGI [2] of 82.6 µM, a GI50 [3] of 1.99 µM and a TGI [3] of 4.74 µM. It also gave a GI50 [4] of 26.6 µM, a TGI [4] greater than 100 µM and a GI50 [5] of 10.6 µM. It also gave a TGI [5] of 30.1 µM, a GI50 [6] of 2.59 µM and a TGI [6] of 9.41 µM. For the same compound, the GI50 [7] was 20.6 µM, the TGI [7] was greater than 100 µM and the GI50 [8] was 2.56 µM. For the same compound, the TGI [8] was 7.65 µM, the GI50 [9] was 1.94 µM and the TGI [9] was 5.1 µM. It also gave a GI50 [10] of 2.05 µM and a TGI [10] of 10.4 µM.
Work on `OCC1CC2CC1C1(C2)OCCO1` (centres undefined) yielded a TGI [1] greater than 100 µM, a TGI [2] greater than 100 µM and a TGI [3] greater than 100 µM. It also gave a TGI [4] greater than 100 µM, a TGI [5] greater than 100 µM and a TGI [6] greater than 100 µM. The TGI [7] was greater than 100 µM, the TGI [8] was greater than 100 µM and the TGI [9] was greater than 100 µM. For the same compound, the TGI [10] was greater than 100 µM.
